The results in this text go back to patent US20080051419A1, “AMINE DERIVATIVES USEFUL AS ANTICANCER AGENTS” (PFIZER INC., priority 2006, published 2008).

Where two headings read alike, the source gives them in different places.

The assay has as its target T1, Akt1 (Homo sapiens, UniProt P31749, S473D).
T1 construct: The version of Akt used in these studies lacks the pleckstrin homology (PH) domain
Description: Akt1 kinase assay, fluorescence polarization (IMAP). It counts as biochemical. In a few lines: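 His-tagged Akt1 lacking the PH domain, Thr308-prephosphorylated, 1.5 ng per reaction, with 4 μM ATP and 40 nM TAMRA-Crosstide (solution concentrations) in Tris pH 7.5/MgCl2/DTT buffer. Incubated 30 min at ambient temperature; IMAP fluorescence polarization read (544/615 nm). IC50 after subtraction of no-enzyme background.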
In general terms: Polarisation of emitted light reports the rotation of a fluorescent probe.

[1] abbreviates: Table 1, concentration bins, read-out: Concentration Range at which exemplary compounds of formula I inhibit Akt kinase activity.
Setting [2] is: average Akt kinase activity (IC50), read-out: Avg Akt kinase, μM (50% inhibition).
Setting [3] is: Table 3, read-out: Avg Akt kinase, μM (50% inhibition).
Setting [4] is: Table 4, read-out: Avg Akt kinase, μM (50% inhibition).

T1 sequence (P31749 118-480 S473D limits assumed, species assumed): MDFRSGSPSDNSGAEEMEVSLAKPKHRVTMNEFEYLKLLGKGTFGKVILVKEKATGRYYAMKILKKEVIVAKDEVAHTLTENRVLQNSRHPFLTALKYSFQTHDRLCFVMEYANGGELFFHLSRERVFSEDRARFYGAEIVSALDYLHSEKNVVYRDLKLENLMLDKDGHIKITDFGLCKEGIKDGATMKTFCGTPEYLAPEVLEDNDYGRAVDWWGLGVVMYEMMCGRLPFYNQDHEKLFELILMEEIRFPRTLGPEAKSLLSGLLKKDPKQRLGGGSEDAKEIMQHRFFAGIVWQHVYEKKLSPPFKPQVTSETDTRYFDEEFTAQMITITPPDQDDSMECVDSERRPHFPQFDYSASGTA

Turning to `Cc1c[nH]c2ncnc(N3CC[C@](N)(CNC(=O)c4ccc(Cl)cc4F)C3)c12` [Example 102, N-{[(3S)-3-amino-1-(5-methyl-7H-pyrrolo[2,3-d]pyrimidin-4-yl)pyrrolidin-3-yl]methyl}-4-chloro-2-fluorobenzamide], the IC50 runs as follows: under setting [1], 0.0101 to 0.1 µM; under setting [2], 0.014 µM. As to “N-{[3-amino-1-(1H-pyrrolo[2,3-b]pyridin-4-yl)pyrrolidin-3-yl]methyl}-5-chloropyrimidin-2-amine [Example 59]”, under setting [3], the IC50 is 0.0035 µM. Turning to `N[C@]1(CNC(=O)c2c(F)cccc2Cl)CCN(c2ncnc3[nH]cc(Cl)c23)C1` [Example 113, N-{[(3S)-3-amino-1-(5-chloro-7H-pyrrolo[2,3-d]pyrimidin-4-yl)pyrrolidin-3-yl]methyl}-2-chloro-6-fluorobenzamide], the IC50 is 0.0101 to 0.1 µM under setting [1] and 0.0332 µM under setting [2]. As for `Cc1c[nH]c2ncnc(N3CCC(N)(COc4cccc(C(F)(F)F)c4)C3)c12` (centres unmarked) [Example 60, 1-(5-Methyl-7H-pyrrolo[2,3-d]pyrimidin-4-yl)-3-(3-trifluoromethyl-phenoxymethyl) pyrrolidin-3-ylamine], the IC50 by setting is: under setting [1], 0.0101 to 0.1 µM; under setting [4], 0.0504 µM. For `N#Cc1c[nH]c2ncnc(N3CC[C@](N)(CNC(=O)c4ccc(F)cc4)C3)c12` [Example 94], the IC50 under setting [1] was 0.00251 to 0.01 µM and the IC50 under setting [2] worked out at 0.00923 µM. `Cc1c[nH]c2ncnc(N3CCC(N)(CNS(=O)(=O)c4c(F)cccc4F)C3)c12` (centres unmarked) [Example 198, N-{[3-amino-1-(5-methyl-7H-pyrrolo[2,3-d]pyrimidin-4-yl)pyrrolidin-3-yl]methyl}-2,6-difluorobenzenesulfonamide]: the IC50 was 0.0101 to 0.1 µM under setting [1] and 0.00267 µM (read-out: Avg Akt kinase, μM (50% inhibition)). `Cc1n[nH]c2ncnc(N3CCC(N)(CNc4cccc(Cl)c4F)C3)c12` (centres unmarked) [Example 41, 3-{[(3-chloro-2-fluorophenyl)amino]methyl}-1-(3-methyl-1H-pyrazolo[3,4-d]pyrimidin-4-yl)pyrrolidin-3-amine]: the IC50 under setting [1] fell in the range of 0.0101 to 0.1 µM and the IC50 under setting [3] turned out to be 0.0134 µM. On to `Cc1c[nH]c2ncnc(N3CC[C@](N)(CNC(=O)c4ccc(F)c(F)c4)C3)c12` [Example 114], for which the IC50 by setting is: under setting [1], 0.0101 to 0.1 µM; under setting [2], 0.0176 µM. For `Cc1c[nH]c2ncnc(N3CCC(N)(CNc4ccc(Cl)cc4F)C3)c12` (centres unmarked) [Example 31, 3-{[(4-chloro-2-fluorophenyl)amino]methyl}-1-(5-methyl-7H-pyrrolo[2,3-d]pyrimidin-4-yl)pyrrolidin-3-amine], the IC50 under setting [1] lay in the range of 0.00251 to 0.01 µM and the IC50 under setting [3] amounted to 0.00514 µM. `Cc1c[nH]c2ncnc(N3CC[C@](N)(CNC(=O)c4c(F)cccc4Cl)C3)c12` [Example 116]: the IC50 reads like this: under setting [1], 0.0101 to 0.1 µM; under setting [2], 0.0681 µM.

Take `Cc1c[nH]c2ncnc(N3CCC(N)(CNc4ccccc4C(=O)NCc4ccccc4)C3)c12` (centres unmarked) [Example 27, 2-({[3-amino-1-(5-methyl-7H-pyrrolo[2,3-d]pyrimidin-4-yl)pyrrolidin-3-yl]methyl}amimo)-N-benzylbenzamide]: the IC50 is, setting by setting: under setting [1], 0.101 to 10 µM; under setting [3], 5.29 µM. As to `N[C@]1(CNC(=O)c2ccccc2Cl)CCN(c2ncnc3[nH]cc(Cl)c23)C1` [Example 85, N-{[(3S)-3-amino-1-(5-chloro-7H-pyrrolo[2,3-d]pyrimidin-4-yl)pyrrolidin-3-yl]methyl}-2-chlorobenzamide], the IC50 is, setting by setting: under setting [1], 0.00251 to 0.01 µM; under setting [2], 0.00643 µM. For `CCc1c[nH]c2ncnc(N3CC[C@](N)(CNC(=O)c4ccc(F)cc4)C3)c12` [Example 93] the same measures were 0.00025 to 0.0025 µM and 0.00191 µM. For `Cc1cccc(NC(=O)NCC2(N)CCN(c3ncnc4[nH]cc(C)c34)C2)c1C` (centres unmarked) [Example 75, 1-{[3-amino-1-(5-methyl-7H-pyrrolo[2,3-d]pyrimidin-4-yl)pyrrolidin-3-yl]methyl}-3-(2,3-dimethylphenyl)urea] the same measures were 0.101 to 10 µM and 0.185 µM. With `N#Cc1n[nH]c2ncnc(N3CCC(N)(CNc4cccc(Cl)c4F)C3)c12` (centres unmarked) [Example 7, 4-(3-amino-3-((3-chloro-2-fluorophenylamino)methyl)pyrrolidin-1-yl)-1H-pyrazolo[3,4-d]pyrimidine-3-carbonitrile], the IC50 was 0.0101 to 0.1 µM under setting [1] and 0.0523 µM under setting [3]. With `CCc1c[nH]c2ncnc(N3CC[C@](N)(CNC(=O)c4ccccc4F)C3)c12` [Example 98, N-{[(3S)-3-amino-1-(5-ethyl-7H-pyrrolo[2,3-d]pyrimidin-4-yl)pyrrolidin-3-yl]methyl}-2-fluorobenzamide], the IC50 under setting [1] fell in the range of 0.00025 to 0.0025 µM and the IC50 under setting [2] was 0.000683 µM. On to `N#Cc1c[nH]c2ncnc(N3CCC(N)(CNc4cccc(C(F)(F)F)c4F)C3)c12` (centres unmarked) [Example 40, 4-[3-amino-3-({[2-fluoro-3-(trifluoromethyl)phenyl]amino}-methyl)pyrrolidin-1-yl]-7H-pyrrolo[2,3-d]pyrimidine-5-carbonitrile], for which the IC50 runs as follows: under setting [1], 0.00251 to 0.01 µM; under setting [3], 0.00807 µM. For `NC1(CNc2cccc(C(F)(F)F)c2)CCN(c2ncnc3[nH]cnc23)C1` (centres unmarked) [Example 14, 1-(9H-purin-6-yl)-3-({[3-(trifluoromethyl)phenyl]amino}-methyl)pyrrolidin-3-amine] the same measures were 0.101 to 10 µM and 0.108 µM. For the compound `Cc1c[nH]c2ncnc(N3CC[C@](N)(COc4cccc(C(F)(F)F)c4)C3)c12` [Example 61, (3R)-1-(5-methyl-7H-pyrrolo[2,3-d]pyrimidin-4-yl)-3-{[3-(trifluoromethyl)-phenoxy]methyl}pyrrolidin-3-amine], the IC50 by setting is: under setting [1], 0.0101 to 0.1 µM; under setting [4], 0.0335 µM. On to `Cc1c[nH]c2ncnc(N3CCC(N)(CN(C)Cc4ccc(Cl)cc4)C3)c12` (centres unmarked) [Example 45, 3-{[(4-chlorobenzyl)(methyl)-amino]methyl}-1-(5-methyl-7H-pyrrolo[2,3-d]pyrimidin-4-yl)pyrrolidin-3-amine], for which the IC50 was 0.101 to 10 µM under setting [1] and 0.144 µM under setting [3]. With `N#Cc1c[nH]c2nccc(N3CCC(N)(CNc4ccccc4Oc4ccccc4)C3)c12` (centres unmarked) [Example 11, 4-(3-amino-3-{[(2-phenoxyphenyl)amino]methyl}pyrrolidin-1-yl)-1H-pyrrolo[2,3-b]pyridine-3-carbonitrile], the IC50 under setting [1] is 0.00251 to 0.01 µM. With `CCc1c[nH]c2ncnc(N3CC[C@](N)(CNC(=O)c4ccccc4Cl)C3)c12` [Example 128], the IC50 reads like this: under setting [1], 0.0101 to 0.1 µM; under setting [2], 0.0147 µM. Take `Cc1c[nH]c2ncnc(N3CCC(N)(CNc4cccc(OC(F)(F)F)c4)C3)c12` (centres unmarked) [Example 25, 1-(5-methyl-7H-pyrrolo[2,3-d]pyrimidin-4-yl)-3-({[3-(trifluoromethoxy)phenyl]amino}methyl)pyrrolidin-3-amine]: the IC50 was 0.0101 to 0.1 µM under setting [1] and 0.0145 µM under setting [3]. For `Cc1c[nH]c2ncnc(N3CCC(N)(CNc4nccc(C(F)(F)F)n4)C3)c12` (centres unmarked) [Example 57, N-{[3-amino-1-(5-methyl-7H-pyrrolo[2,3-d]pyrimidin-4-yl)pyrrolidin-3-yl]methyl}-4-(trifluoromethyl)pyrimidin-2-amine] the same measures were 0.0101 to 0.1 µM and 0.0287 µM. For `Cc1c[nH]c2ncnc(N3CCC(N)(CNc4cccc(C(F)(F)F)c4F)C3)c12` (centres unmarked) [Example 3] the same measures were 0.00025 to 0.0025 µM and 0.0012 µM. Regarding `Cc1c[nH]c2ncnc(N3CCC(N)(CNC(=O)c4ccccc4)C3)c12` (centres unmarked) [Example 69, N-((3-amino-1-(5-methyl-7H-pyrrolo[2,3-d]pyrimidin-4-yl)pyrrolidin-3-yl)methyl)benzamide], the IC50 under setting [1] is 0.0101 to 0.1 µM and the IC50 under setting [2] is 0.0623 µM.
